Drawing on ChEMBL document CHEMBL1139705, “Synthesis and in vitro pharmacological studies of new C(4)-modified salvinorin A analogues” (Bioorg Med Chem Lett, 2006), this text covers Ki, EC50 and Efficacy for 24 compounds.

Bounds are passed on as bounds.

The target in assay [1] is T1, Kappa-type opioid receptor (Homo sapiens, UniProt P41145). Nature of the assay: Displacement of [3H]diprenorphine binding from human kappa opioid receptor expressed in CHO cells. Format: cell-based.
Assay [2] has as its target T1, Kappa-type opioid receptor. The experiment in a line: Binding potency at human kappa opioid receptor expressed in CHO cells by [35S]GTPgammaS binding assay. It is filed as functional, cell-based.
Assay [3] addresses T1, Kappa-type opioid receptor. The experiment in a line: Efficacy at human kappa opioid receptor expressed in CHO cells by [35S]GTP-gamma-S binding assay relative to U50,488H. Format: functional, cell-based.

T1 sequence (P41145 whole entry): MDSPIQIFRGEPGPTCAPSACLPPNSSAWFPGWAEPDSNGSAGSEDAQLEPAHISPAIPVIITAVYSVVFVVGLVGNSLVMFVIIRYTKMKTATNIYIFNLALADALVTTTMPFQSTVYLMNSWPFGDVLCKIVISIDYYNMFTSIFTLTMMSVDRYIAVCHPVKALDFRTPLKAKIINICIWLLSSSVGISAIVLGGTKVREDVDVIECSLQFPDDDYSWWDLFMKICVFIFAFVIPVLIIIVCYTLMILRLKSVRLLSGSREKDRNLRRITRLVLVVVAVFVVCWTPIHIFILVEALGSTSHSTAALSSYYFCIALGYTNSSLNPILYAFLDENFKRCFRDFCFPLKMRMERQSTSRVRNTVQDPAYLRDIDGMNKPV

In assay [1], `C#CCC(=O)OC[C@@H]1C[C@H](OC(C)=O)C(=O)[C@H]2[C@@]1(C)CC[C@H]1C(=O)O[C@H](c3ccoc3)C[C@]21C` showed a Ki of more than 1000 nM.
Take `CC(=O)OC[C@@H]1C[C@H](OC(C)=O)C(=O)[C@H]2[C@@]1(C)CC[C@H]1C(=O)O[C@H](c3ccoc3)C[C@]21C`: in assay [1], the Ki is more than 1000 nM.
`CC(=O)O[C@H]1C[C@@H](COC(=O)c2cccc(F)c2)[C@]2(C)CC[C@H]3C(=O)O[C@H](c4ccoc4)C[C@]3(C)[C@H]2C1=O` registered a Ki in assay [1] of more than 1000 nM.
In turn, `CC(=O)O[C@H]1C[C@@H](COC(=O)CNC(=O)OCC2c3ccccc3-c3ccccc32)[C@]2(C)CC[C@H]3C(=O)O[C@H](c4ccoc4)C[C@]3(C)[C@H]2C1=O` gave a Ki in assay [1] of more than 1000 nM.
On to `C=CCOC[C@@H]1C[C@H](OC(C)=O)C(=O)[C@H]2[C@@]1(C)CC[C@H]1C(=O)O[C@H](c3ccoc3)C[C@]21C`, for which the Ki in assay [1] was more than 1000 nM.
As for `CC(=O)O[C@H]1C[C@@H](COC(=O)C2CC2)[C@]2(C)CC[C@H]3C(=O)O[C@H](c4ccoc4)C[C@]3(C)[C@H]2C1=O`, the concentration giving a half-maximal response (EC50) in assay [2] was 358 nM. Also, in assay [3], the Efficacy is 92%. The same compound yielded a Ki in assay [1] of 221 nM.
The compound `CC(=O)O[C@H]1C[C@@H](COC(=O)Cc2ccccc2)[C@]2(C)CC[C@H]3C(=O)O[C@H](c4ccoc4)C[C@]3(C)[C@H]2C1=O` returned a Ki in assay [1] of more than 1000 nM.
Take `CC(=O)O[C@H]1C[C@@H](COC(=O)C(C)NC(=O)OCC2c3ccccc3-c3ccccc32)[C@]2(C)CC[C@H]3C(=O)O[C@H](c4ccoc4)C[C@]3(C)[C@H]2C1=O` (stereo not given in full): the Ki in assay [1] is more than 1000 nM.
On to `CCOC[C@@H]1C[C@H](OC(C)=O)C(=O)[C@H]2[C@@]1(C)CC[C@H]1C(=O)O[C@H](c3ccoc3)C[C@]21C`, for which, in assay [1], the Ki is more than 1000 nM.
On the same count and under the same terms, the same measure for `CC(=O)O[C@H]1C[C@@H](COCc2ccccc2)[C@]2(C)CC[C@H]3C(=O)O[C@H](c4ccoc4)C[C@]3(C)[C@H]2C1=O`: more than 1000 nM.
In assay [2], `CC(=O)O[C@H]1C[C@@H](CO)[C@]2(C)CC[C@H]3C(=O)O[C@H](c4ccoc4)C[C@]3(C)[C@H]2C1=O` had an EC50 of 20.7 nM. The Efficacy in assay [3] was 107%. This compound also gave a Ki in assay [1] of 43.4 nM.
`CC(=O)O[C@H]1C[C@@H](C(=O)O)[C@]2(C)CC[C@H]3C(=O)O[C@H](c4ccoc4)C[C@]3(C)[C@H]2C1=O` displayed a Ki in assay [1] of more than 1000 nM.
Take `CC(=O)O[C@H]1C[C@@H](COC(=O)c2ccc(C)cc2)[C@]2(C)CC[C@H]3C(=O)O[C@H](c4ccoc4)C[C@]3(C)[C@H]2C1=O`: the Ki in assay [1] is more than 1000 nM.
The compound `COCCOCC(=O)OC[C@@H]1C[C@H](OC(C)=O)C(=O)[C@H]2[C@@]1(C)CC[C@H]1C(=O)O[C@H](c3ccoc3)C[C@]21C` registered an EC50 in assay [2] of 210 nM. The compound further had an Efficacy in assay [3] of 98%. Besides, the Ki in assay [1] amounted to 613 nM.
With `CC(=O)O[C@H]1C[C@@H](COC(=O)C(NC(=O)OCC2c3ccccc3-c3ccccc32)c2ccccc2)[C@]2(C)CC[C@H]3C(=O)O[C@H](c4ccoc4)C[C@]3(C)[C@H]2C1=O` (stereo not given in full), the Ki in assay [1] is more than 1000 nM.
The same measure, in the same setting: the same measure for `CC(=O)O[C@H]1C[C@@H](COC(=O)c2ccc(F)cc2)[C@]2(C)CC[C@H]3C(=O)O[C@H](c4ccoc4)C[C@]3(C)[C@H]2C1=O`: more than 1000 nM; for `CC(=O)O[C@H]1C[C@@H](c2nnnn2CCC#N)[C@]2(C)CC[C@H]3C(=O)O[C@H](c4ccoc4)C[C@]3(C)[C@H]2C1=O`: more than 1000 nM; for `COCCOCC(=O)OC[C@@H]1C[C@H](OC(C)=O)C(=O)[C@H]2[C@@]1(C)CC[C@@H]1C(=O)O[C@H](c3ccoc3)C[C@]21C`: more than 1000 nM.
The same measure, in the same setting: the same measure for `C/C=C/C(=O)OC[C@@H]1C[C@H](OC(C)=O)C(=O)[C@H]2[C@@]1(C)CC[C@H]1C(=O)O[C@H](c3ccoc3)C[C@]21C`: more than 1000 nM.
With `COC(=O)[C@@H]1C[C@H](OC(C)=O)C(=O)[C@H]2[C@@]1(C)CC[C@H]1C(=O)O[C@H](c3ccoc3)C[C@]21C`, the Efficacy in assay [3] is 106%.
As to `CC(=O)O[C@H]1C[C@@H](COC(=O)c2ccc(Br)cc2)[C@]2(C)CC[C@H]3C(=O)O[C@H](c4ccoc4)C[C@]3(C)[C@H]2C1=O`, the Ki in assay [1] is more than 1000 nM.
On the same count and under the same terms, the same measure for `COC[C@@H]1C[C@H](OC(C)=O)C(=O)[C@H]2[C@@]1(C)CC[C@H]1C(=O)O[C@H](c3ccoc3)C[C@]21C`: more than 1000 nM.
In turn, `CC(=O)O[C@H]1C[C@@H](C=O)[C@]2(C)CC[C@H]3C(=O)O[C@H](c4ccoc4)C[C@]3(C)[C@H]2C1=O` gave a Ki in assay [1] of more than 1000 nM.
In turn, `CC(=O)O[C@H]1C[C@@H](COC(=O)C(C)N(C)C(=O)OCC2c3ccccc3-c3ccccc32)[C@]2(C)CC[C@H]3C(=O)O[C@H](c4ccoc4)C[C@]3(C)[C@H]2C1=O` (stereo not given in full) displayed a Ki in assay [1] of more than 1000 nM.
